Reference: article PMC11356900, “Synthesis, Structural Properties and Biological Activities of Novel Hydrazones of 2-, 3-, 4-Iodobenzoic Acid” (Molecules, 2024)
In brackets after ≈: the same amount, converted by molar mass.

Legend:
[1] = system: Bacillus subtilis ATCC 6633; assay: Broth microdilution MIC/MBC; conditions: ATCC6633
[2] = system: Micrococcus luteus ATCC 10240; assay: Broth microdilution MIC/MBC; conditions: Micrococcus luteus, ATCC10240
[3] = system: Staphylococcus epidermidis ATCC 12228; assay: Broth microdilution MIC/MBC; conditions: ATCC12228
[4] = system: Bacillus cereus ATCC 10876; assay: Broth microdilution MIC/MBC; conditions: Bacillus cereus, ATCC10876
[5] = system: Staphylococcus aureus ATCC 25923; assay: Broth microdilution MIC/MBC; conditions: Staphylococcus aureus, ATCC25923
[6] = system: Staphylococcus aureus ATCC 43300; assay: Broth microdilution MIC/MBC; conditions: ATCC43300 / MRSA
[7] = system: Staphylococcus aureus ATCC 29213; assay: Broth microdilution MIC/MBC; conditions: ATCC29213
[8] = system: Candida glabrata ATCC 90030; assay: Broth microdilution MIC/MFC; format: cell-based; conditions: Nakaseomyces glabratus; for MIC: ATCC90030, read-out: MIC
Excerpt: (§1) Procedures of in vitro antimicrobial assays are described in Supplementary Materials.
(§2) 2. Microbiology – in vitro antimicrobial activity assays […]
(§3) using the broth microdilution method according to the European Committee on Antimicrobial Susceptibility Testing (EUCAST) and Clinical and Laboratory Standards Institute guidelines against a panel of reference and clinical or saprophytic strains of mi croorganisms, including the Gram-positive bacteria: Staphylococcus aureus ATCC 43300 (Methi-cillin Resistant S. aureus – MRSA), Staphylococcus aureus ATCC 29213 (Methicillin Susceptible S. aureus – MSSA), Staph-ylococcus epidermidis ATCC 12228, Micrococcus luteus ATCC 10240, Bacillus subtilis ATCC 6633 and Bacillus cereus ATCC 10876), Gram-negative bacteria: Bordetella bronchiseptica ATCC 4617, Escherichia coli ATCC 25922, Klebsiella pneumoniae ATCC 13883, Proteus mirabilis ATCC 12453, Salmonella typhimurium ATCC 14028 and Pseudomonas aeruginosa ATCC 9027, and fungi belonging to yeasts: Candida albicans ATCC 10231, Candida albicans ATCC 2091, Candida parapsilosis ATCC 22019, Candida glabrata ATCC 90030 and Candida krusei ATCC 14243. The microorganisms belonging to ATCC originated from American Type Culture Collection, routinely used for the evaluation of antimicrobials. All the used microbial cultures were first subcultured on nutrient agar or Sabouraud agar at 35°C for 18-24 h or 30°C for 24-48 h for bacteria […]
(§4) The surface of Mueller-Hinton agar (for bacteria) and RPMI 1640 with MOPS (for fungi) were inoculated with the suspensions of bacterial or fungal species. Microbial suspensions were prepared in sterile saline with an optical density of McFarland standard scale 0.5. The samples containing the compounds were dissolved in dimethyl sulfoxide (DMSO).
(§5) Furthermore, the bacterial and fungal suspensions put onto the Petri dishes with solid media containing 2 mg/mL of the tested compounds followed were incubated at 37°C for 24h and 30°C for 48h for bacteria and fungi, respectively.
(§6) The inhibition of microbial growth was estimated comparing with a control culture prepared without any tested sam- […]
(§7) antifungal compounds, respectively.
(§8) Subsequently, MIC (Minimal Inhibitory Concentration) of the compounds was examined by the microdilution broth method, using their two-fold dilutions in Mueller-Hinton broth (for bacteria) and RPMI 1640 broth with MOPS (for fungi) prepared in the 96-well polystyrene plates. The final concentrations of the compounds ranged from 1000 to 0.488 µg/mL. Microbial suspensions were prepared in 0.85% NaCl with an optical density of 0.5 McFarland standard. Next each bacterial or fungal suspension was added per each well containing broth and various concentrations of the exam-ined compounds. After incubation, the MIC was assessed spectrophotometrically as the lowest concentration of the […]
(§9) Appropriate DMSO, growth and sterile controls were carried out. The medium with no tested substances was used as a control The MBC (Minimal Bactericidal Concentration) and MFC (Minimal Fungicidal Concentration) are defined as the lowest concentration of the compounds that is required to kill a particular bacterial or fungal species. The MBC/MFC was determined by removing the culture used for the MIC determination from each well and spotted onto the appro-priate agar medium. The plates were incubated under appropriate conditions for bacteria and fungi. The lowest com-pounds concentration with no visible growth observed was assessed as a bactericidal/fungicidal concentration. All the experiments were repeated three times and the representative data are presented.
(§10) 1. European Committee for Antimicrobial Susceptibility Testing (EUCAST) Determination of minimum inhibitory con-centrations (MICs) of antibacterial agents by broth dilution. EUCAST discussion document E. Dis 5.1. Clin. Microbiol.
(§11) 2. Clinical and Laboratory Standards Institute. Reference method for broth dilution antifungal susceptibility testing of […]

[9] = system: Candida albicans ATCC 2091; assay: Broth microdilution MIC/MFC; format: cell-based; conditions: ATCC2091, read-out: MIC
Excerpt: as §1, §2, §3, §4, §5, §6, §7, §8, §9, §10, §11

[10] = system: Candida parapsilosis ATCC 22019; assay: Broth microdilution MIC/MFC; format: cell-based; conditions: Lodderomyces parapsilosis, ATCC22019, read-out: MIC
Excerpt: as §1, §2, §3, §4, §5, §6, §7, §8, §9, §10, §11

[11] = system: Candida albicans ATCC 10231; assay: Broth microdilution MIC/MFC; format: cell-based; conditions: for MFC: ATCC10231, read-out: MFC; for MIC: ATCC10231, read-out: MIC
Excerpt: as §1, §2, §3, §4, §5, §6, §7, §8, §9, §10, §11

[12] = system: Candida krusei ATCC 14243; assay: Broth microdilution MIC/MFC; format: cell-based; conditions: Pichia kudriavzevii; for MFC: ATCC14243, read-out: MFC; for MIC: ATCC14243, read-out: MIC
Excerpt: as §1, §2, §3, §4, §5, §6, §7, §8, §9, §10, §11

[13] = system: Candida spp.; assay: Broth microdilution, summary over reference yeasts; format: cell-based; conditions: reference yeasts from Candida spp.
Excerpt: as §1, §2, §3, §4, §5, §6, §7, §8, §9, §10, §11

[14] = system: Gram-positive bacteria; assay: Broth microdilution, summary over reference Gram-positive bacteria; format: cell-based; conditions: reference Gram-positive bacteria / studied bacteria
Excerpt: as §1, §2, §3, §4, §5, §6, §7, §8, §9, §10, §11

With CC1(C)S[C@@H]2[C@H](NC(=O)[C@H](N)c3ccccc3)C(=O)N2[C@H]1C(=O)O [APC, ampicillin, reference compound] the MIC [1] was 62.5 µg/mL (≈ 179 µM).
In the case of CO/N=C(\C(=O)N[C@@H]1C(=O)N2C(C(=O)O)=C(COC(N)=O)CS[C@H]12)c1ccco1 [CFX, cefuroxime, reference compound], the MIC [2] was 0.98 µg/mL (≈ 2.31 µM), the MIC [3] was 0.24 µg/mL (≈ 0.566 µM) and the MIC [4] was 31.2 µg/mL (≈ 73.6 µM). For the same compound, the MIC [5] was 0.49 µg/mL (≈ 1.15 µM) and the MIC [1] was 15.6 µg/mL (≈ 36.8 µM).
Compound NNC(=O)c1ccccc1I [Compound 4, 2-iodobenzohydrazide] has an MIC [6] greater than 1000 µg/mL, an MBC [2] greater than 1000 µg/mL and an MIC [2] of 1000 µg/mL (≈ 3820 µM). It also gave an MBC [3] greater than 1000 µg/mL, an MIC [3] of 1000 µg/mL (≈ 3820 µM) and an MIC [7] greater than 1000 µg/mL. The MIC [4] was greater than 1000 µg/mL, the MBC [5] was greater than 1000 µg/mL and the MIC [5] was 500 µg/mL (≈ 1910 µM). The MIC [8] was greater than 1000 µg/mL, the MIC [9] was greater than 1000 µg/mL and the MIC [10] was greater than 1000 µg/mL. It also gave an MFC [11] greater than 1000 µg/mL, an MIC [11] of 1000 µg/mL (≈ 3820 µM) and an MFC [12] greater than 1000 µg/mL. The MIC [12] was 1000 µg/mL (≈ 3820 µM), the “antifungal activity in words” value [13] was “mild activity or were inactive” and the melting point was 182 to 189 °C. The MIC [1] was greater than 1000 µg/mL.
Compound O=C(N/N=C/c1cccc([N+](=O)[O-])c1O)c1ccccc1I [Compound 7, N-[(2-hydroxy-3-nitrophenyl)methylidene]-2-iodobenzohydrazide] has an MIC [6] greater than 1000 µg/mL, an MBC [2] greater than 1000 µg/mL and an MIC [2] of 1000 µg/mL (≈ 2430 µM). The MBC [3] was 1000 µg/mL (≈ 2430 µM), the MIC [3] was 125 µg/mL (≈ 304 µM) and the MIC [7] was greater than 1000 µg/mL. It also gave an MIC [4] greater than 1000 µg/mL, an MBC [5] greater than 1000 µg/mL and an MIC [5] of 500 µg/mL (≈ 1220 µM). For the same compound, the MIC [8] was greater than 1000 µg/mL, the MIC [9] was greater than 1000 µg/mL and the MIC [10] was greater than 1000 µg/mL. The MFC [11] was greater than 1000 µg/mL, the MIC [11] was 1000 µg/mL (≈ 2430 µM) and the MIC [12] was greater than 1000 µg/mL. For the same compound, the “antifungal activity in words” value [13] was “mild activity or were inactive”, the melting point was 240 to 245 °C and the MBC [1] was greater than 1000 µg/mL. For the same compound, the MIC [1] was 1000 µg/mL (≈ 2430 µM).
In the case of CCOc1cccc(/C=N/NC(=O)c2ccccc2I)c1O [Compound 10, N-[(3-ethoxy-2-hydroxyphenyl)methylidene]-2-iodobenzohydrazide], the MIC [6] was greater than 1000 µg/mL, the MIC [2] was greater than 1000 µg/mL and the MIC [3] was greater than 1000 µg/mL. For the same compound, the MIC [7] was greater than 1000 µg/mL, the MIC [4] was greater than 1000 µg/mL and the MIC [5] was greater than 1000 µg/mL. The MFC ([8]; ATCC90030, read-out: MFC) was greater than 1000 µg/mL, the MIC [8] was 1000 µg/mL (≈ 2440 µM) and the MIC [9] was greater than 1000 µg/mL. The MIC [10] was greater than 1000 µg/mL, the MIC [11] was greater than 1000 µg/mL and the MFC [12] was greater than 1000 µg/mL. For the same compound, the MIC [12] was 1000 µg/mL (≈ 2440 µM), the “antifungal activity in words” value [13] was “mild activity or were inactive” and the melting point was 167 to 170 °C. For the same compound, the MIC [1] was greater than 1000 µg/mL and the “antibacterial activity in words” value [14] was “no antimicrobial effect”.
